Laboratory results reported in patent publication US20240368153A1, “Aminopyridine-based MTA-Cooperative PRMT5 Inhibitors” (Mirati Therapeutics, Inc., priority 2021, published 2024).
Like-named read-outs stand apart in the source and are kept apart here.

Columns and labels:
[1] = target: recombinant human dual expressed Avi PRMT5/His-MEP50 protein (Homo sapiens (Human), UniProt O14744); assay: HTRF binding assay in presence of MTA; settings: 30 μM MTA
Experimental: The PRMT5 binding activity of compounds of the present invention was determined using an HTRF binding assay or SPR assay.
A recombinant human dual expressed Avi PRMT5/His-MEP50) protein (corresponding to amino acids for PRMT5 2-637, and 2-342 for MEP50 expressed in baculovirus) was incubated with target fragments in final buffer (25 mM ADA pH 7.2, 30 μM MTA, 1 mM TCEP, 50 mM NaCl, 0.002% Tween, 5 nM proprietary Tracer binding compound prepared in-house), overnight at 2-8° C. After overnight incubation the binding is monitored after the addition of 0.5 nM Anti-His-Tb (Cisbio) after 1 hr incubation at RT (˜20-24 hrs total binding time). The HTRF signal was measured using a Clariostar reader (BMG) excitation filter (Ex Tr), dichroic filter (LP TP) and emission filters (F 665-10 and F 620-10) manufacturer's instructions. The HTRF ratio was calculated using the formula: [emission 665/emission 620]*10000.

PRMT5/MEP50 complex = PRMT5/MEP50 complex (Homo sapiens (Human), UniProt O14744); assay: PRMT5:MEP50 FlashPlate Assay; format: biochemical
Sequence of PRMT5/MEP50 complex (O14744 whole entry): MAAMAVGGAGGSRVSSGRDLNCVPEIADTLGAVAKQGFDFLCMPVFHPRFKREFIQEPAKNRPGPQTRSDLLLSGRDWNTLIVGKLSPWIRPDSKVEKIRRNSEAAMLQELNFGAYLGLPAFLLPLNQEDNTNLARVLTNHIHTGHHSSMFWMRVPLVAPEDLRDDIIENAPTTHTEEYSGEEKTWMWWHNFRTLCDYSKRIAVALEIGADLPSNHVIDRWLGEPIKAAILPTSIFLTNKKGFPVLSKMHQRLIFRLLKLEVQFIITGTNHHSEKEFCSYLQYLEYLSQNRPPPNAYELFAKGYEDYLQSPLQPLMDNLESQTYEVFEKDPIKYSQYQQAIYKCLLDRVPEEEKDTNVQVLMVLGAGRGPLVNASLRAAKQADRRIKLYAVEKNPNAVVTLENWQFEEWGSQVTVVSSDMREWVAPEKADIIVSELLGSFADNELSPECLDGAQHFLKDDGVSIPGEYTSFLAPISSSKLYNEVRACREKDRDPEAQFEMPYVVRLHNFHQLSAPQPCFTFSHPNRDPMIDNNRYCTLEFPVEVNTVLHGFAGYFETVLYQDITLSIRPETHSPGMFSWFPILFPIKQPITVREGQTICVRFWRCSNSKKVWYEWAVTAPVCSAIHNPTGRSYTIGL
Sequence of PRMT5/MEP50 complex (Q9BQA1 whole entry partner): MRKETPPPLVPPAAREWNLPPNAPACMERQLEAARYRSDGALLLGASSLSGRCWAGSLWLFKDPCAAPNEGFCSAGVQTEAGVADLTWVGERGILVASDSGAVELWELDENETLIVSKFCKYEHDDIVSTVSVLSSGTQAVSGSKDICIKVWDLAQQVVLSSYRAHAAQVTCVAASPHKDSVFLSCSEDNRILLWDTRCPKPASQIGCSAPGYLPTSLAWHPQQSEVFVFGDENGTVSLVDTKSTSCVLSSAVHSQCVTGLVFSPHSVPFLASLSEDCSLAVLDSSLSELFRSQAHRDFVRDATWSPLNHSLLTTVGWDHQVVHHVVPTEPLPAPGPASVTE
Experimental: The PRMT5 inhibitory activity of compounds of the present invention was determined using a PRMT5:MEP50 FlashPlate Assay (Reaction Biology Corporation).
The assay uses purified human, PRMT5 enzyme to convert S-adenosyl-L-[methyl-^3H]methionine plus histone H4 L-arginine to S-adenosyl-L-homocysteine plus histone H4 [methyl-^3H]-L-arginine. The assay was carried out using Streptavidin-coated FlashPlates (Perkin Elmer), which contained a scintillant embedded in the plastic of the plate. The histone H4 peptide substrate was conjugated with biotin, which binds to the streptavidin-coated well of the plate, placing the H4 peptide in close proximity to the side well and the scintillant. The transfer of the tritiated methyl group from S-adenosyl-L-[methyl-^3H]methionine to the bound histone H4 peptide generated a radiolabeled histone H4, which was quantitated by measuring in a scintillation counter to determine the activity of PRMT5 enzyme in the presence and absence of compound. […] Briefly, compounds of the present invention were solubilized in 100% DMSO at a highest concentration of 10 mM. For IC, determinations, the initial starting concentration for the serial dilutions of each compound was 50 μM. Control samples lacking compound, PRMT5/MEP50 complex or various reaction components also were prepared and processed in parallel with compound test samples. SAH was used as a positive control for assay validation. To measure PRMT5 inhibitory activity, 3 nM PRMT5/MEP50 complex (Reaction Biology Corporation) was preincubated with test compound in assay buffer containing 40 nM histone H4 peptide (amino acids 1-15)-Biotin conjugate for 20 min at room temperature. The enzymatic reaction was initiated by adding 1 μM tritiated S-adenosyl methionine (final concentration) and the reaction is allowed to proceed for 20 min. The reaction was stopped and the amount of bound, tritiated H4 peptide in each sample was determined using a scintillation counter. The IC50 value for each compound was calculated from each 10-point dose-response curve for samples plus and minus MTA using GraphPad Prism software and the results for exemplary compounds of Formula (I) is shown in Table 9a.

[2] = histone H4 peptide, absence of MTA, read-out: IC50
[3] = read-out: IC50 + 2 μM MTA, histone H4 peptide, presence of 2 μM MTA
[4] = IC50 + 2 μM MTA, histone H4 peptide, presence of 2 μM MTA

Sequence of recombinant human dual expressed Avi PRMT5/His-MEP50 protein (O14744 2-637): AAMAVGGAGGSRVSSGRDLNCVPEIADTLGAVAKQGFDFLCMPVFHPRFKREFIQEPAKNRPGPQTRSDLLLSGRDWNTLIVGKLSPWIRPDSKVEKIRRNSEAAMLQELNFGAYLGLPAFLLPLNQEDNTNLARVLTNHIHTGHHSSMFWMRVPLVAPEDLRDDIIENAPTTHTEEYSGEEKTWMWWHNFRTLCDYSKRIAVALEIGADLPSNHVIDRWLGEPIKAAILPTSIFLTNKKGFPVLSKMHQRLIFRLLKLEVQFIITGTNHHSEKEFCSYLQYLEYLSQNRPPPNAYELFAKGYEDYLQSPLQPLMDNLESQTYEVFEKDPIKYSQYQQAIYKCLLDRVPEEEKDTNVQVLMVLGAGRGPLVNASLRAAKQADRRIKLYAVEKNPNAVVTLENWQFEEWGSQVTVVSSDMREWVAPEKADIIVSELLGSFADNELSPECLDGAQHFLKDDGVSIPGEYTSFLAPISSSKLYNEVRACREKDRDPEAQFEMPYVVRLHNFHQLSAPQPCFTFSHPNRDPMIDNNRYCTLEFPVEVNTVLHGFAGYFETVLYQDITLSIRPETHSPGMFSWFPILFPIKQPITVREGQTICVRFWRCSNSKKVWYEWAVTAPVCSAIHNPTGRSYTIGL
Sequence of recombinant human dual expressed Avi PRMT5/His-MEP50 protein (Q9BQA1 2-342 partner): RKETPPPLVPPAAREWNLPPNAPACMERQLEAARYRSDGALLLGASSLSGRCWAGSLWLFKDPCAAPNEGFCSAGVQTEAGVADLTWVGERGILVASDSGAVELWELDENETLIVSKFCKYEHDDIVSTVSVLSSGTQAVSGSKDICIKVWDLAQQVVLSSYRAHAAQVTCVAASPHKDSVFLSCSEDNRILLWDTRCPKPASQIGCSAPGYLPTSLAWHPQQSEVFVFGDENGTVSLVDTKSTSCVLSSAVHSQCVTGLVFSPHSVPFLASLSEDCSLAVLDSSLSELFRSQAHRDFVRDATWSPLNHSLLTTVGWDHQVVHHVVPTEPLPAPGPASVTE

| SMILES | IC50 [1] [µM] | further results |
| --- | --- | --- |
| Cc1cc(N)nc2cc(-c3ccccc3)cnc12 [Example 1-1, 4-methyl-7-phenyl-1,5-naphthyridin-2-amine] | 17.2 | – |
| Cc1cc(N)nc2cc(-c3ccccn3)cnc12 [Example 1-2, 4-methyl-7-(pyridin-2-yl)-1,5-naphthyridin-2-amine] | 82 | – |
| Cc1cc(N)nc2cc(-c3cccnc3)cnc12 [Example 1-3, 4-methyl-7-(pyridin-3-yl)-1,5-paphthyridin-2-amine] | 2.08 | – |
| Cc1cc(N)nc2cc(-c3cccnn3)cnc12 [Example 1-4, 4-methyl-7-(pyridazin-3-yl)-1,5-naphthyridin-2-amine] | 7.46 | – |
| Cc1cc(N)nc2cc(-c3ccsn3)cnc12 [Example 1-5, 7-(isothiazol-3-yl)-4-methyl-1,5-naphtbyridin-2-amine] | 55.5 | – |
| Cc1cc(N)nc2cc(-c3cncs3)cnc12 [Example 1-6, 4-methyl-7-(thiazol-5-yl)-1,5-naphthyridin-2-amine] | 51 | – |
| Cc1cc(N)nc2cc(-c3cnn(C)c3)cnc12 [Example 1-7, 4-methyl-7-(1-methyl-1H-pyrazol-4-yl)-1,5-naphthyridin-2-amine] | 7.92 | – |
| Cc1cc(N)nc2cc(Cc3ccccc3)cnc12 [Example 2-1, 7-benzyl-4-methyl-1,5-naphthyridin-2-amine] | 6.64 | – |
| Cc1ccccc1Cc1cnc2c(C)cc(N)nc2c1 [Example 2-5, 4-methyl-7-(2-methylbenzyl)-1,5-naphtbyridin-2-amine] | 8.83 | – |
| Cc1cc(N)nc2cc(Cc3ccccn3)cnc12 [Example 2-6, 4-methyl-7-(2-pyridylmethyl)-1,5-naphthyridin-2-amine] | 2.85 | – |
| Cc1cc(N)nc2cc(Cc3ccncc3)cnc12 [Example 2-8, 4-methyl-7-(4-pyridylmethyl)-1,5-naphthyridin-2-amine] | 35.5 | – |
| Cc1cc(N)nc2cc(Cc3cscn3)cnc12 [Example 2-10, 4-methyl-7-(thiazol-4-ylmethyl)-1,5-naphthyridin-2-amine] | 2.14 | – |
| Cc1cc(N)nc2cc(Oc3ccccc3)cnc12 [Example 3-1, 4-methyl-7-phenoxy-1,5-naphthyridin-2-amine] | 8.99 | – |
| Cc1cc(N)nc2cc(Oc3ccccc3F)cnc12 [Example 3-2, 7-(2-fluorophenoxy)-4-methyl-1,5-naphthyridin-2-amine] | 5.11 | – |
| Cc1cc(N)nc2cc(Oc3ccccc3Cl)cnc12 [Example 3-3, 7-(2-chlorophenoxy)-4-methyl-1,5-naphthyridin-2-amine] | 4.8 | – |
| Cc1cc(N)nc2cc(Oc3ccccc3C#N)cnc12 [Example 3-4, 2-((6-amino-8-methyl-1,5-naphthyridin-3-yl)oxy)benzonitrile] | 33.9 | – |
| Cc1ccccc1Oc1cnc2c(C)cc(N)nc2c1 [Example 3-5, 4-methyl-7-(2-methylphenoxy)-1,5-naphtbyridin-2-amine] | 39.6 | – |
| Cc1cc(N)nc2cc(Oc3ccccn3)cnc12 [Example 3-6, 4-methyl-7-(pyridin-2-yloxy)-1,5-naphthyridin-2-amine] | 40.6 | – |
| Cc1cc(N)nc2cc(Oc3ccncc3)cnc12 [Example 3-8, 4-methyl-7-(pyridin-4-yloxy)-1,5-naphtbyridin-2-amine] | 84 | – |
| Cc1cc(N)nc2ccc(-c3ccccn3)nc12 [Example 4-2, 4-methyl-6-(2-pyridyl)-1,5-naphthyridin-2-amine] | 13.9 | – |
| Cc1cc(N)nc2ccc(-c3cccnc3)nc12 [Example 4-3, 4-methyl-6-(3-pyridyl)-1,5-naphthyridin-2-amine] | 23.9 | – |

| SMILES | IC50 [1] [µM] | further results |
| --- | --- | --- |
| Cc1cc(N)nc2ccc(-c3cncs3)nc12 [Example 4-4, 4-methyl-6-thiazol-5-yl-1,5-naphthyridin-2-amine] | 29.6 | – |
| Cc1cc(N)nc2ccc(-c3cnn(C)c3)nc12 [Example 4-5, 4-methyl-6-(1-methylpyrazol-4-yl)-1,5-naphthyridin-2-amine] | 64.1 | – |
| Cc1cc(N)nc2ccc(-c3cnsc3)nc12 [Example 4-6, 6-isothiazol-4-yl-4-methyl-1,5-naphthyridin-2-amine] | 21.8 | – |
| Cc1cc(N)nc2ccc(-c3ccc(F)cc3)nc12 [Example 4-9, 6-(4-fluorophenyl)-4-methyl-1,5-naphthyridin-2-amine] | 14 | – |
| Cc1cc(N)nc2ccc(-c3ccsn3)nc12 [Example 4-10, 6-isothiazol-3-yl-4-methyl-1,5-naphthyridin-2-amine] | 13.5 | – |
| CNc1ccc2nc(N)cc(C)c2n1 [Example 5-1, N^2,8-dimethyl-1,5-naphthyridine-2,6-diamine] | ≥ 100 | – |
| Cc1cc(N)nc2ccc(NC3CCC3)nc12 [Example 5-3, N^6-cyclobutyl-4-methyl-1,5-naphthyridine-2,6-diamine] | 87.9 | – |
| Nc1ccc2cc(Cl)ncc2n1 [Example 6-1, 6-chloro-1,7-naphthyridin-2-amine] | ≥ 100 | – |
| Cc1cc(N)nc2cc(C(C#N)N3C(=O)c4ccccc4C3=O)cnc12 (stereo not drawn) [Example 7-7, 2-(6-amino-8-methyl-1,5-naphthyridin-3-yl)-2-(1,3-dioxoisoindolin-2-yl)acetonitrile] | 0.024 | IC50 (PRMT5/MEP50 complex; [2]): > 300 µM; IC50 (PRMT5/MEP50 complex; [3]): 2.39 µM |
| Nc1ccc2c(n1)CN(c1cccnc1)CC2 [Example 11-1, 7-(3-pyridyl)-6,8-dihydro-5H-1,7-naphthyridin-2-amine] | 3.68 | – |
| Nc1ccc2c(n1)CN(c1cncc(Oc3ccccc3)c1)CC2 [Example 11-2, 7-(5-phenoxy-3-pyridyl)-6,8-dihydro-5H-1,7-naphthyridin-2-amine] | 0.073 | IC50 (PRMT5/MEP50 complex; [3]): 5.8 µM |
| Cn1cc(N2CCc3cc(F)c(N)nc3C2)cn1 [Example 11-3, 3-fluoro-7-(1-methyl-1H-pyrazol-4-yl)-5,6,7,8-tetrahydro-1,7-naphthyridin-2-amine] | ≥ 100 | – |
| Cn1ncc(N2CCc3cc(F)c(N)nc3C2)c1-c1ccccc1C#N [Example 11-4, 2-(4-(2-amino-3-fluoro-5,6-dihydro-1,7-naphthyridin-7(8H)-yl)-1-methyl-1H-pyrazol-5-yl)benzonitrile] | 1.43 | IC50 (PRMT5/MEP50 complex; [2]): > 300 µM; IC50 (PRMT5/MEP50 complex; [3]): 79.8 µM |
| Cc1cc2[nH]c(NC(=O)c3ccccc3)cc2nc1N [Example 12-2, N-(5-amino-6-methyl-1H-pyrrolo[3,2-b]pyridin-2-yl)benzamide] | 5.46 | IC50 (PRMT5/MEP50 complex; [2]): 60.2 µM; IC50 (PRMT5/MEP50 complex; [3]): 44.7 µM |
| Nc1ccc2[nH]c(NC(=O)c3ccccc3)cc2n1 [Example 12-3, N-(5-amino-1H-pyrrolo[3,2-b]pyridin-2-yl)benzamide] | 18.3 | IC50 (PRMT5/MEP50 complex; [2]): 95.9 µM; IC50 (PRMT5/MEP50 complex; [3]): 97.7 µM |
| Cc1cc2[nH]c(-n3cnc(Br)n3)cc2nc1N [Example 13-2, 2-(3-bromo-1,2,4-triazol-1-yl)-6-methyl-1H-pyrrolo[3,2-b]pyridin-5-amine] | 4.27 | IC50 (PRMT5/MEP50 complex; [4]): 72.8 µM; IC50 (PRMT5/MEP50 complex; [2]): 83.8 µM |
| Cc1cc2[nH]c(N3CCN(C)C3=O)cc2nc1N [Example 13-5, 1-(5-amino-6-methyl-1H-pyrrolo[3,2-b]pyridin-2-yl)-3-methyl-imidazolidin-2-one] | 31.8 | IC50 (PRMT5/MEP50 complex; [4]): 70 µM; IC50 (PRMT5/MEP50 complex; [2]): > 300 µM |
| Cc1cc2[nH]c(N3CCNC3=O)cc2nc1N [Example 13-6, 1-(5-amino-6-methyl-1H-pyrrolo[3,2-b]pyridin-2-yl)imidazolidin-2-one] | 6.69 | IC50 (PRMT5/MEP50 complex; [4]): 183 µM; IC50 (PRMT5/MEP50 complex; [2]): 60.3 µM |
| Cc1cc2c(cc(CNC(=O)c3ccccc3)n2C)nc1N [Example 15-3, N-[(5-amino-1,6-dimethyl-pyrrolo[3,2-b]pyridin-2-yl)methyl]benzamide] | 0.138 | – |
| C#Cc1c(CNC(=O)c2ccccc2)[nH]c2cc(C)c(N)nc12 [Example 15-4, N-((5-amino-3-ethynyl-6-methyl-1H-pyrrolo[3,2-b]pyridin-2-yl)methyl)benzamide] | 17 | – |
| CC(=O)NCc1cc2nc(N)c(C)cc2n1C(C)=O [Example 15-7, N-((1-acetyl-5-amino-6-methyl-1H-pyrrolo[3,2-b]pyridin-2-yl)methyl)acetamide] | 0.581 | – |
